Laboratory results: ChEMBL document CHEMBL6121019, “Design, synthesis and biological evaluation of bisnoralcohol derivatives as novel IRF4 inhibitors for the treatment of multiple myeloma” (Eur J Med Chem, 2025)
The source made the active and inactive calls. No cut-off for these calls is given here.

Legend:
[1] = target: T1, Interferon regulatory factor 4 (Homo sapiens, UniProt Q15306); test: Binding affinity to IRF4 (unknown origin) assessed as dissociation constant by SPR analysis
T1 sequence (Q15306 whole entry): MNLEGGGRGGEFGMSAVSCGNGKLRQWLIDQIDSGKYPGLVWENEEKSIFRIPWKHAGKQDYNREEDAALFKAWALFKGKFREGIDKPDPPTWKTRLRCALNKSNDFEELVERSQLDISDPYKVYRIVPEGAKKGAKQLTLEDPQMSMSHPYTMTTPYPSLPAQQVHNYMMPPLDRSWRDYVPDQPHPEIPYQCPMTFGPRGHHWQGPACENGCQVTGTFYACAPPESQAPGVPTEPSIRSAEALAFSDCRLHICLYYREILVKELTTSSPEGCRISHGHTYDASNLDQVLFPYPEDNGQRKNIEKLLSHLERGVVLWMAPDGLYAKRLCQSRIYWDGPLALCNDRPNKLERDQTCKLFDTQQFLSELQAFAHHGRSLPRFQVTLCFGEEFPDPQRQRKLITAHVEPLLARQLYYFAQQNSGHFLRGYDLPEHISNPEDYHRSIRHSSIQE

NCI-H929 [2] = test: Induction of DNA damage in human NCI-H929 cells assessed as increase in gammaH2AX expression at 0.1 to 1 uM by Western blot analysis; format: functional, cell-based; conditions: dose 0.1-1 µM
[3] = Clearance in ICR mouse plasma at 1.0 mg/kg, iv; format: ADME, organism-based
NCI-H929 [4] = test: Induction of cell cycle arrest in human NCI-H929 cells assessed as accumulation of cells at G1 phase at 0.125 uM measured after 24 hrs by flow cytometry analysis (reference value: 54.12%); format: functional
NCI-H929 [5] = test: Downregulation of HK2 expression in human NCI-H929 cells measured after 24 hrs by qRT-PCR analysis; format: functional, cell-based; conditions: dose 0.125-1 µM
MM.1R [6] = test: Antiproliferative activity against human MM1.R cells with siRNA mediated IRF4 knockdown measured upto 5 days by MTS assay; format: functional, cell-based; conditions: time <= 5.0 day
MM.1R [7] = test: Downregulation of E2F5 expression in human MM1.R cells measured after 24 hrs by qRT-PCR analysis; format: functional, cell-based; conditions: dose 0.125-1 µM
[8] = Tmax in ICR mouse plasma at 10 mg/kg, po; format: ADME, organism-based
NCI-H929 [9] = test: Induction of cell cycle arrest in human NCI-H929 cells assessed as accumulation of cells at S phase at 0.125 uM measured after 24 hrs by flow cytometry analysis (reference value: 32.14%); format: functional
NCI-H929 [10] = test: Antitumor activity against human NCI-H929 cells xenografted in Balb/C nude mouse model assessed as inhibition of inhibition of cyclin D1 expression at 25 mg/kg by Western blot analysis; format: functional, organism-based
NCI-H929 [11] = test: Effect on IRF4 expression in human NCI-H929 cells by Western blot analysis; format: functional, cell-based
MM.1R [12] = test: Induction of cell cycle arrest in human MM1.R cells assessed as inhibition of cyclin B1 protein expression at 0.1 to 1 uM; format: functional, cell-based; conditions: dose 0.1-1 µM
[13] = AUC (0 to infinity) in ICR mouse plasma at 10 mg/kg, po; format: ADME, organism-based
NCI-H929 [14] = test: Antitumor activity against human NCI-H929 cells xenografted in Balb/C nude mouse model assessed as inhibition of […] expression at 25 mg/kg by Western blot analysis; format: functional, organism-based
[15] = Potency index, ratio of IC50 for lenalidomide to test compound IC50 for antiproliferative activity against human MM1.R cells assessed as inhibition of cell growth measured after 72 hrs by MTS assay; format: functional
[16] = target: T1, Interferon regulatory factor 4; test: Inhibition of IRF4 (unknown origin) incubated for 1 hr by fluorescence polarization assay
NCI-H929 [17] = test: Induction of cell cycle arrest in human NCI-H929 cells assessed as accumulation of cells at G2 phase at 0.25 uM measured after 24 hrs by flow cytometry analysis (reference value: 13.37%); format: functional
MM.1R [18] = test: Effect on IRF4 expression in human MM1.R cells with siRNA mediated IRF4 knockdown by Western blot analysis; format: functional, cell-based
RPMI-8226 = test: Effect on IRF4 expression in human RPMI-8226 cells by Western blot analysis; format: functional, cell-based
NCI-H929 [19] = test: Antiproliferative activity against human NCI-H929 cells with siRNA mediated IRF4 knockdown measured upto 5 days by MTS assay; format: functional, cell-based; conditions: time <= 5.0 day
MM.1R [20] = test: Downregulation of CMYC expression in human MM1.R cells measured after 24 hrs by qRT-PCR analysis; format: functional, cell-based; conditions: dose 0.125-1 µM
NCI-H929 [21] = test: Downregulation of CMYC expression in human NCI-H929 cells measured after 24 hrs by qRT-PCR analysis; format: functional, cell-based; conditions: dose 0.125-1 µM
NCI-H929 [22] = test: Antitumor activity against human NCI-H929 cells xenografted in Balb/C nude mouse model assessed as reduction in Ki67 expression at 25 mg/kg by immunohistochemical staining based analysis; format: functional, organism-based
MM.1R [23] = test: Antiproliferative activity against human MM1.R cells with siRNA mediated IRF4#1 knockdown at 0.125 to 1 uM measured upto 5 days by MTS assay; format: functional, cell-based; conditions: dose 0.125-1 µM, time <= 5.0 day
NCI-H929 [24] = test: Induction of cell cycle arrest in human NCI-H929 cells assessed as accumulation of cells at S phase at 0.5 uM measured after 24 hrs by flow cytometry analysis (reference value: 32.14%); format: functional
NCI-H929 [25] = test: Induction of cell cycle arrest in human NCI-H929 cells assessed as inhibition of CMYC protein expression at 0.1 to 1 uM; format: functional, cell-based; conditions: dose 0.1-1 µM
[26] = Terminal elimination half life in ICR mouse plasma at 1.0 mg/kg, iv; format: ADME, organism-based; conditions: read-out: beta t1/2 (converted)
NCI-H929 [27] = test: Induction of cell cycle arrest in human NCI-H929 cells assessed as accumulation of cells at G1 phase measured after 24 hrs by flow cytometry analysis; format: functional, cell-based; conditions: dose 0.125-0.5 µM
MM.1R [28] = test: Induction of DNA damage in human MM1.R cells assessed as increase in gammaH2AX expression at 0.1 to 1 uM by Western blot analysis; format: functional, cell-based; conditions: dose 0.1-1 µM
[29] = Oral bioavailability in ICR mouse plasma at 10 mg/kg; format: ADME, organism-based
[30] = Selectivity ratio IC50 for human RPMI-8226 cells to IC50 for human NCI-H929 cells; format: toxicity
NCI-H929 [31] = test: Induction of cell cycle arrest in human NCI-H929 cells assessed as inhibition of cyclin B1 protein expression at 0.1 to 1 uM; format: functional, cell-based; conditions: dose 0.1-1 µM
NCI-H929 [32] = test: Downregulation of CCNC expression in human NCI-H929 cells measured after 24 hrs by qRT-PCR analysis; format: functional, cell-based; conditions: dose 0.125-1 µM
[33] = Toxicity in Balb/C nude mouse assessed as changes in main organ at 12.5 to 25 mg/kg administered once daily and measured every three days for 34 days by H and E staining based analysis; format: organism-based; conditions: in vivo, 816 h, dose 12.5-25 mg/kg, time 34 day
MM.1R [34] = test: Downregulation of CANX expression in human MM1.R cells measured after 24 hrs by qRT-PCR analysis; format: functional, cell-based; conditions: dose 0.125-1 µM
NCI-H929 [35] = test: Antiproliferative activity against human NCI-H929 cells assessed as inhibition of 3D clone forming ability measured after 2 to 3 weeks; format: functional, cell-based; conditions: dose 0.125-1 µM, time 2-3 weeks
MM.1R [36] = test: Induction of cell cycle arrest in human MM1.R cells assessed as inhibition of CDC2 protein expression at 0.1 to 1 uM; format: functional, cell-based; conditions: dose 0.1-1 µM

- Kd [1]: 1280 nM
- clearance [3]: 197 mL/min/kg
- Tmax [8]: 31.8 min
- AUC(0-inf) [13]: 463 ng·h/mL
- IC50 [16]: 2630 nM
- half-life [26]: 75 min
- bioavailability [29]: 53.9%
Structure (SMILES): COc1ccc(NC(=O)[C@@H](C)[C@H]2CC[C@H]3[C@@H]4C(=O)C=C5C(C)(C)C(=O)C(C#N)=C[C@]5(C)[C@H]4CC[C@]23C)cc1
- Activity (NCI-H929 [2]): Active
- Activity (NCI-H929 [4]): 57.62%
- Activity (NCI-H929 [5]): Active
- Activity (MM.1R [6]): Active
- Activity (MM.1R [7]): Active
- Activity (NCI-H929 [9]): 30.67%
- Activity (NCI-H929 [10]): Active
- Activity (NCI-H929 [11]): Active
- Activity (MM.1R [12]): Active
- Activity (NCI-H929 [14]): Active
- Ratio IC50 [15]: 30
- Activity (NCI-H929 [17]): 14.14%
- Activity (MM.1R [18]): Active
- Activity (RPMI-8226): Active; Compound Showed Low Expression
- Activity (NCI-H929 [19]): Active
- Activity (MM.1R [20]): Active
- Activity (NCI-H929 [21]): Active
- Activity (NCI-H929 [22]): Active
- Activity (MM.1R [23]): Active
- Activity (NCI-H929 [24]): 20.54%
- Activity (NCI-H929 [25]): Active
- Activity (NCI-H929 [27]): Dose-dependent-effect
- Activity (MM.1R [28]): Active
- Ratio IC50 [30]: 14.9
- Activity (NCI-H929 [31]): Active
- Activity (NCI-H929 [32]): Active
- Activity [33]: Non-toxic
- Activity (MM.1R [34]): Active
- Activity (NCI-H929 [35]): Dose-dependent-effect
- Activity (MM.1R [36]): Active
